Source: patent US11180483B2, “Substituted reverse pyrimidine Bmi-1 inhibitors” (PTC Therapeutics, Inc., priority 2012, dated 2021)

System: Bmi-1
Assay: Sandwich ELISA Assay (Bmi-1 ELISA) in HT-1080 cells
Format: cell-based
Method in brief: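 Bmi-1 in lysates was measured by a three-antibody ELISA with TMB, OD450 minus OD570 reference, interpolated on a GST-tagged recombinant Bmi-1 standard curve, 0-8000 pg/mL. Lysates came from HT-1080 cells treated 40-48 h with compound, final DMSO 0.5%.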

Compound	EC50 [nM]
CCc1nc2ccccc2n1-c1nc(N)c(Cl)c(Nc2ccc(C(F)(F)F)cc2)n1 [Cpd 167, 5-chloro-2-(2-ethyl-1H-benzimidazol-1-yl)-N-[4-(trifluoromethyl)phenyl]pyrimidine-4,6-diamine]	10 to 100
CCc1nc2ccccc2n1-c1nc(N)c(Cl)c(Nc2ccc(OC(F)F)cc2)n1 [Cpd 168, 5-chloro-N-[4-(difluoromethoxy)phenyl]-2-(2-ethyl-1H-benzimidazol-1-yl)pyrimidine-4,6-diamine]	100 to 3000
Cc1nc2ccccn2c1-c1nc(N)c(F)c(Nc2ccc(C(F)(F)F)cc2)n1 [Cpd 169, 5-fluoro-2-(2-methylimidazo[1,2-a]pyridin-3-yl)-N-[4-(trifluoromethyl)phenyl]pyrimidine-4,6-diamine]	100 to 3000
Cc1nc2ccccn2c1-c1nc(N)c(F)c(Nc2ccc(OC(F)F)cc2)n1 [Cpd 170, N-[4-(difluoromethoxy)phenyl]-5-fluoro-2-(2-methylimidazo[1,2-a]pyridin-3-yl)pyrimidine-4,6-diamine]	100 to 3000
Cc1nn2ccccc2c1-c1nc(N)c(F)c(Nc2ccc(C(F)(F)F)cc2)n1 [Cpd 177, 5-fluoro-2-(2-methylpyrazolo[1,5-a]pyridin-3-yl)-N-[4-(trifluoromethyl)phenyl]pyrimidine-4,6-diamine]	100 to 3000
Nc1nc(-c2c(C(F)(F)F)nc3ccc(F)cn23)nc(Nc2ccc(C(F)(F)F)cc2)c1F [Cpd 178, 5-fluoro-2-[6-fluoro-2-(trifluoromethyl)imidazo[1,2-a]pyridin-3-yl]-N-[4-(trifluoromethyl)phenyl]pyrimidine-4,6-diamine]	100 to 3000
Nc1nc(-c2c(CO)nn3ccc(F)cc23)nc(Nc2ccc(OC(F)F)cc2)c1F [Cpd 181, [3-(4-amino-6-{[4-(difluoromethoxy)phenyl]amino}-5-fluoropyrimidin-2-yl)-5-fluoropyrazolo[1,5-a]pyridin-2-yl]methanol]	10 to 100
CSc1nc2ccccc2n1-c1nc(N)cc(Nc2ccc(C(F)(F)F)cc2)n1 [Cpd 182, 2-[2-(methylsulfanyl)-1H-benzimidazol-1-yl]-N-[4-(trifluoromethyl)phenyl]pyrimidine-4,6-diamine]	100 to 3000
Cc1nc2ccc(F)cc2n1-c1nc(N)c(F)c(Nc2ccc(C(F)(F)F)nc2)n1 [Cpd 183, 5-fluoro-2-(6-fluoro-2-methyl-1H-benzimidazol-1-yl)-N-[6-(trifluoromethyl)pyridin-3-yl]pyrimidine-4,6-diamine]	10 to 100
Cc1ccc(Nc2nc(-n3c(C)nc4ccc(F)cc43)nc(N)c2F)cc1 [Cpd 184, 5-fluoro-2-(6-fluoro-2-methyl-1H-benzimidazol-1-yl)-N-(4-methylphenyl)pyrimidine-4,6-diamine]	1 to 10
Cc1nc2ccc(F)cc2n1-c1nc(N)c(F)c(Nc2ccc(OC(F)(F)F)cc2)n1 [Cpd 191, 5-fluoro-2-(6-fluoro-2-methyl-1H-benzimidazol-1-yl)-N-[4-(trifluoromethoxy)phenyl]pyrimidine-4,6-diamine]	10 to 100
Cc1nc2ccc(F)cc2n1-c1nc(N)c(F)c(Nc2ccc(C#N)cc2)n1 [Cpd 192, 4-{[6-amino-5-fluoro-2-(6-fluoro-2-methyl-1H-benzimidazol-1-yl)pyrimidin-4-yl]amino}benzonitrile]	100 to 3000
Cc1cccc(Nc2nc(-n3c(C)nc4ccccc43)nc(N)c2F)c1 [Cpd 194, 5-fluoro-2-(2-methyl-1H-benzimidazol-1-yl)-N-(3-methylphenyl)pyrimidine-4,6-diamine]	100 to 3000
Cc1nc2ccccc2n1-c1nc(N)c(F)c(Nc2ccc(C#N)cc2)n1 [Cpd 202, 4-{[6-amino-5-fluoro-2-(2-methyl-1H-benzimidazol-1-yl)pyrimidin-4-yl]amino}benzonitrile]	100 to 3000
Cc1nc2ccccc2n1-c1nc(N)c(F)c(Nc2ccc(OC(F)(F)F)cc2)n1 [Cpd 204, 5-fluoro-2-(2-methyl-1H-benzimidazol-1-yl)-N-[4-(trifluoromethoxy)phenyl]pyrimidine-4,6-diamine]	10 to 100
Cc1nc2ccccc2n1-c1nc(N)cc(Nc2ccc(Cl)cc2)n1 [Cpd 209, N-(4-chlorophenyl)-2-(2-methyl-1H-benzimidazol-1-yl)pyrimidine-4,6-diamine]	10 to 100
Cc1nc2ccccc2n1-c1nc(N)cc(Nc2ccc([N+](=O)[O-])cc2)n1 [Cpd 211, 2-(2-methyl-1H-benzimidazol-1-yl)-N-(4-nitrophenyl)pyrimidine-4,6-diamine]	100 to 3000
Cc1nc2ccccc2n1-c1nc(N)cc(Nc2ccc(Br)cc2)n1 [Cpd 212, N-(4-bromophenyl)-2-(2-methyl-1H-benzimidazol-1-yl)pyrimidine-4,6-diamine]	10 to 100

The next lines start with the values.

EC50 [nM]	Compound
100 to 3000	Cc1nc2ccccn2c1-c1nc(N)c(F)c(Nc2ccc(OC(F)F)c(F)c2)n1 [Cpd 171, N-[4-(difluoromethoxy)-3-fluorophenyl]-5-fluoro-2-(2-methylimidazo[1,2-a]pyridin-3-yl)pyrimidine-4,6-diamine]
100 to 3000	Cc1c(N)nc(-n2c(C)nc3ccccc32)nc1Nc1ccc(C(F)(F)F)cc1 [Cpd 172, 5-methyl-2-(2-methyl-1H-benzimidazol-1-yl)-N-[4-(trifluoromethyl)phenyl]pyrimidine-4,6-diamine]
100 to 3000	Cc1nn2ccccc2c1-c1nc(N)c(F)c(Nc2ccc(OC(F)F)cc2)n1 [Cpd 173, N-[4-(difluoromethoxy)phenyl]-5-fluoro-2-(2-methylpyrazolo[1,5-a]pyridin-3-yl)pyrimidine-4,6-diamine]
1 to 10	COc1ccc(Nc2nc(-n3c(C)nc4ccc(F)cc43)nc(N)c2F)cc1 [Cpd 179, 5-fluoro-2-(6-fluoro-2-methyl-1H-benzimidazol-1-yl)-N-(4-methoxyphenyl)pyrimidine-4,6-diamine]
100 to 3000	Nc1nc(-c2c(C3CC3)nn3ccccc23)nc(Nc2ccc(OC(F)F)cc2)c1F [Cpd 180, 2-(2-cyclopropylpyrazolo[1,5-a]pyridin-3-yl)-N-[4-(difluoromethoxy)phenyl]-5-fluoropyrimidine-4,6-diamine]
10 to 100	Cc1nc2ccc(F)cc2n1-c1nc(N)c(F)c(Nc2ccc(Cl)cc2)n1 [Cpd 185, N-(4-chlorophenyl)-5-fluoro-2-(6-fluoro-2-methyl-1H-benzimidazol-1-yl)pyrimidine-4,6-diamine]
100 to 3000	COc1cccc(Nc2nc(-n3c(C)nc4ccc(F)cc43)nc(N)c2F)c1 [Cpd 189, 5-fluoro-2-(6-fluoro-2-methyl-1H-benzimidazol-1-yl)-N-(3-methoxyphenyl)pyrimidine-4,6-diamine]
100 to 3000	Cc1nc2ccc(F)cc2n1-c1nc(N)c(F)c(Nc2cccc(Cl)c2)n1 [Cpd 190, N-(3-chlorophenyl)-5-fluoro-2-(6-fluoro-2-methyl-1H-benzimidazol-1-yl)pyrimidine-4,6-diamine]
10 to 100	COC(=O)c1ccc(Nc2nc(-n3c(C)nc4ccc(F)cc43)nc(N)c2F)cc1 [Cpd 193, methyl 4-{[6-amino-5-fluoro-2-(6-fluoro-2-methyl-1H-benzimidazol-1-yl)pyrimidin-4-yl]amino}benzoate]
100 to 3000	COc1cccc(Nc2nc(-n3c(C)nc4ccccc43)nc(N)c2F)c1 [Cpd 195, 5-fluoro-N-(3-methoxyphenyl)-2-(2-methyl-1H-benzimidazol-1-yl)pyrimidine-4,6-diamine]
1 to 10	Cc1ccc(Nc2cc(N)nc(-n3c(C)nc4ccccc43)n2)cc1 [Cpd 196, 2-(2-methyl-1H-benzimidazol-1-yl)-N-(4-methylphenyl)pyrimidine-4,6-diamine]
1 to 10	COc1ccc(Nc2cc(N)nc(-n3c(C)nc4ccccc43)n2)cc1 [Cpd 197, N-(4-methoxyphenyl)-2-(2-methyl-1H-benzimidazol-1-yl)pyrimidine-4,6-diamine]
1 to 10	Cc1nc2ccccc2n1-c1nc(N)cc(Nc2ccc(N(C)C)cc2)n1 [Cpd 198, N-[4-(dimethylamino)phenyl]-2-(2-methyl-1H-benzimidazol-1-yl)pyrimidine-4,6-diamine]
1 to 10	Cc1ccc(Nc2nc(-n3c(C)nc4ccccc43)nc(N)c2F)cc1 [Cpd 199, 5-fluoro-2-(2-methyl-1H-benzimidazol-1-yl)-N-(4-methylphenyl)pyrimidine-4,6-diamine]
1 to 10	COc1ccc(Nc2nc(-n3c(C)nc4ccccc43)nc(N)c2F)cc1 [Cpd 200, 5-fluoro-N-(4-methoxyphenyl)-2-(2-methyl-1H-benzimidazol-1-yl)pyrimidine-4,6-diamine]
10 to 100	Cc1nc2ccccc2n1-c1nc(N)c(F)c(Nc2ccc(Cl)cc2)n1 [Cpd 201, N-(4-chlorophenyl)-5-fluoro-2-(2-methyl-1H-benzimidazol-1-yl)pyrimidine-4,6-diamine]
1 to 10	Cc1nc2ccccc2n1-c1nc(N)c(F)c(Nc2ccc3c(c2)OCO3)n1 [Cpd 203, N-(1,3-benzodioxol-5-yl)-5-fluoro-2-(2-methyl-1H-benzimidazol-1-yl)pyrimidine-4,6-diamine]
100 to 3000	Cc1nc2ccccc2n1-c1nc(N)cc(Nc2ccc(C#N)cc2)n1 [Cpd 210, 4-{[6-amino-2-(2-methyl-1H-benzimidazol-1-yl)pyrimidin-4-yl]amino}benzonitrile]
1 to 10	Cc1ccc(Nc2nc(-n3c(C)nc4cc(F)c(F)cc43)nc(N)c2F)cc1 [Cpd 213, 2-(5,6-difluoro-2-methyl-1H-benzimidazol-1-yl)-5-fluoro-N-(4-methylphenyl)pyrimidine-4,6-diamine]
10 to 100	COc1ccc(Nc2nc(-n3c(C)nc4cc(F)c(F)cc43)nc(N)c2F)cc1 [Cpd 214, 2-(5,6-difluoro-2-methyl-1H-benzimidazol-1-yl)-5-fluoro-N-(4-methoxyphenyl)pyrimidine-4,6-diamine]
100 to 3000	Cc1nc2cc(F)c(F)cc2n1-c1nc(N)c(F)c(Nc2ccc(Cl)cc2)n1 [Cpd 215, N-(4-chlorophenyl)-2-(5,6-difluoro-2-methyl-1H-benzimidazol-1-yl)-5-fluoropyrimidine-4,6-diamine]
